Tests used:
TNF-α = TNF-α level in Lipopolysaccharide (LPS) treated mice; format: in vivo; details: compared to the control Lipopolysaccharide (LPS) group
COX-1 enzyme = COX-1 enzyme (Homo sapiens, UniProt P23219); experiment: COX-1 enzyme inhibition; format: biochemical; details: FIG. 3A
mice = experiment: Disease Activity Index in DSS mice, 21 day study; format: in vivo; details: end of study period of 21 days, compared with the vehicle DSS group, P<0.04
IL-6 = IL-6 level in LPS treated mice; format: in vivo; details: compared to the control LPS group
COX-2 enzyme = target: T1, COX-2 enzyme (Homo sapiens, UniProt P35354); experiment: COX-2 enzyme inhibition; format: biochemical; details: FIG. 3A
T1 sequence (P35354 18-604): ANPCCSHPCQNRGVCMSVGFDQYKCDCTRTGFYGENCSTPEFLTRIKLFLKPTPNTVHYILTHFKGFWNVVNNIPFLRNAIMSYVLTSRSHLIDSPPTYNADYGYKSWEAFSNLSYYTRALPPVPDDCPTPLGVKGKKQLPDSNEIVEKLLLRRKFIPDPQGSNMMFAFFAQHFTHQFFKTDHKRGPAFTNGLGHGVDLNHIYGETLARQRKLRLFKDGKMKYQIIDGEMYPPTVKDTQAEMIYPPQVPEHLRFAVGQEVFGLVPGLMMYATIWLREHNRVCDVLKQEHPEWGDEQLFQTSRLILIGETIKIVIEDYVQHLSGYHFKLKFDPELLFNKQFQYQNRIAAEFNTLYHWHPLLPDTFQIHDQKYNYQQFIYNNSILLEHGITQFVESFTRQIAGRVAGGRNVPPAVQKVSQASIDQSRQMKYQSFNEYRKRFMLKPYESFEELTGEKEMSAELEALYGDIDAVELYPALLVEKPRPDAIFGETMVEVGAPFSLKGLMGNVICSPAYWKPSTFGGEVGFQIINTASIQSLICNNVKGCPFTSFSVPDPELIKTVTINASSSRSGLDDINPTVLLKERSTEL

Chain of COX-1 enzyme (P23219 24-599): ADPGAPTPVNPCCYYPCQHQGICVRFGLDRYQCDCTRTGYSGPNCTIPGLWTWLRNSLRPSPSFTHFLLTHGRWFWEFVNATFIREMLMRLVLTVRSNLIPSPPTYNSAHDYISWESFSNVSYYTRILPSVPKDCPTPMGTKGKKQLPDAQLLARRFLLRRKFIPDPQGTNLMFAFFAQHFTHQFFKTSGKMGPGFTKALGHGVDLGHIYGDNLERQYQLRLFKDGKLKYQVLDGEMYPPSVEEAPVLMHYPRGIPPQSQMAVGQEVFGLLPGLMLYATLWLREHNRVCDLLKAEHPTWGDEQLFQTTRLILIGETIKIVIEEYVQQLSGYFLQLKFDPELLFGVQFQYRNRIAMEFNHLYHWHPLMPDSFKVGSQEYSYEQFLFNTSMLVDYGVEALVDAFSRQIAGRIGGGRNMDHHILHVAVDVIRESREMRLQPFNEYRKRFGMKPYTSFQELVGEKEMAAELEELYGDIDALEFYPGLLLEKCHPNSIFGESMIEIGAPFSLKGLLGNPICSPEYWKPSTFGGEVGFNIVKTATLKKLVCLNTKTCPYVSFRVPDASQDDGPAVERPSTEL

| Compound | decrease of TNF-α (TNF-α) [%] | reduction of COX-1 enzyme activity (COX-1 enzyme) [%] | decrease in Disease Activity Index (mice) [%] | decrease of IL-6 (IL-6) [%] | reduction of COX-2 enzyme activity (COX-2 enzyme) [%] |
| --- | --- | --- | --- | --- | --- |
| CC/C=C\CC(=O)Oc1ccc(Br)cc1C1SCCCS1 [compound 1, (Z)-4-bromo-2-(1,3-dithian-2-yl)phenyl hex-3-enoate] | 53 | 38 | 23 | 19 | 45 |
| COc1cc(C2SCCCS2)ccc1OC(=O)/C=C/c1ccccc1 [compound 2, 4-(1,3-dithian-2-yl)-2-methoxyphenyl cinnamate] | 26 | – | – | – | – |

— patent US12227487B1, “Acyloxy substituted phenyl dithiane derivatives” (Renovel Innovations, Inc, priority 2021, dated 2025)
